Where two headings read alike, the source gives them in different places.
Legend:
[1] = tested on: HCV genotype 3a (HCV replicon system); assay: HCV replicon system genotype 3a, firefly luciferase activity; assay type: cell-based; details: Hepatitis C virus, 72 h, HCV genotype 3a replicon, Fluc, 3 days, read-out: Replicon EC50 3a type
Protocol: (§1) From human liver cells (Huh7.5.1 cell) infected by hepatitis C virus, the anti-virus effects by the compound of the present invention were measured. From HCV genotype 1 b (HCV replicon system), genotype 2a (HCV cell culture system, HCVcc), and genotype 3a, the EC50 values were measured.
In order to measure the EC50 value from genotype 3a, the value was measured through the luciferase activity. A HCV replicon system having firefly luciferase (Fluc) genes and genotype 3a non-structure genes was used. The HCV replicon system having the genes as described above was used to treat the experimental compound under various concentration conditions, and then 3 days later, the EC50 value was measured by comparing the luciferase activity with that of the control.

[2] = tested on: HCV genotype 1 b (HCV replicon system); assay: HCV replicon system genotype 1b, Renilla luciferase activity; assay type: cell-based; details: Hepatitis C virus, 72 h, HCV genotype 1b replicon, Rluc, 3 days, read-out: Replicon EC50 1b type
Protocol: as §1
In order to measure the EC50 value from HCV genotype 1 b, the degrees of HCV replication inhibitory activities of an experimental compound were measured. The EC50 value was measured by treating the experimental compound with the HCV replicon systems (genotype 1 b) having Renilla luciferase (Rluc) genes and genotype 1 b non-structure genes under various concentration conditions to compare the activity degree of the luciferase after 3 days elapsed time with that of the control.

[3] = range limits given with own units (pM to nM)

SMILES	EC50 [1, 3]	EC50 [2, 3]	EC50 [1]	EC50 [2]
COC(=O)N[C@@H](C(=O)N1CCC[C@H]1C(=O)Nc1ccc2c3ccc(NC(=O)[C@@H]4CCCN4C(=O)[C@H](NC(=O)OC)c4ccccc4)cc3n(CCCCCCCCCCN3CCN(C)CC3)c2c1)c1ccccc1 [Example 33, dimethyl ((1R,1′R)-((2S,2′S)-(((9-(10-(4-methylpiperazine-1-yl)decyl)-9H-carbazole-2,7-diyl)bis(azanediyl))bis(carbonyl))bis(pyrrolidine-2,1-diyl))bis(2-oxo-1-phenylethane-2,1-diyl))dicarbamate]	100 to 1000 pM	100 to 1000 pM	–	–
COC(=O)N[C@@H](C(=O)N1CCC[C@H]1C(=O)Nc1ccc2c3ccc(NC(=O)[C@@H]4CCCN4C(=O)[C@H](NC(=O)OC)c4ccccc4)cc3n(CCc3ccccc3)c2c1)c1ccccc1 [Example 50, dimethyl ((1R,1′R)-((2S,2′S)-(((9-phenethyl-9H-carbazole-2,7-diyl)bis(azanediyl))bis(carbonyl))bis(pyrrolidine-2,1-diyl))bis(2-oxo-1-phenylethane-2,1-diyl))dicarbamate]	–	–	183 pM	4.34 pM
COC(=O)N[C@@H](C(=O)N1CCC[C@H]1C(=O)Nc1ccc2c3ccc(NC(=O)[C@@H]4CCCN4C(=O)[C@H](NC(=O)OC)c4ccccc4)cc3n(Cc3cccc([N+](=O)[O-])c3)c2c1)c1ccccc1 [Example 37, dimethyl ((1R,1′R)-((2S,2′S)-(((9-(3-nitrobenzyl)-9H-carbazole-2,7-diyl)bis(azanediyl))bis(carbonyl))bis(pyrrolidine-2,1-diyl))bis(2-oxo-1-phenylethane-2,1-diyl))dicarbamate]	–	–	87.4 pM	14.5 pM
COC(=O)N[C@@H](C(=O)N1CCC[C@H]1C(=O)Nc1ccc2c3ccc(NC(=O)[C@@H]4CCCN4C(=O)[C@H](NC(=O)OC)c4ccccc4)cc3n(CC3CCCCC3)c2c1)c1ccccc1 [Example 48, dimethyl ((1R,1′R)-((2S,2′S)-(((9-(cyclohexylmethyl)-9H-carbazole-2,7-diyl)bis(azanediyl))bis(carbonyl))bis(pyrrolidine-2,1-diyl))bis(2-oxo-1-phenylethane-2,1-diyl))dicarbamate]	–	–	161 pM	7.41 pM
COC(=O)N[C@@H](C(=O)N1CCC[C@H]1C(=O)Nc1ccc2c3ccc(NC(=O)[C@@H]4CCCN4C(=O)[C@H](NC(=O)OC)c4ccccc4)cc3n(Cc3cccc(NC(=O)C(C)(C)C)c3)c2c1)c1ccccc1 [Example 38, dimethyl ((1R,1′R)-((2S,2′S)-(((9-(3-pivalamidobenzyl)-9H-carbazole-2,7-diyl)bis(azanediyl))bis(carbonyl))bis(pyrrolidine-2,1-diyl))bis(2-oxo-1-phenylethane-2,1-diyl))dicarbamate]	–	–	81.9 pM	35.4 pM
CCCCn1c2cc(NC(=O)[C@@H]3CCCN3C(=O)[C@@H](NC(=O)OC)C(C)C)ccc2c2ccc(NC(=O)[C@@H]3CCCN3C(=O)[C@@H](NC(=O)OC)C(C)C)cc21 [Example 4, dimethyl ((2S,2′S)-((2S,2′S)-(((9-butyl-9H-carbazole-2,7-diyl)bis(azanediyl))bis(carbonyl))bis(pyrrolidine-2,1-diyl))bis(3-methyl-1-oxobutane-1,2-diyl))dicarbamate]	–	–	–	10000 to 100000 pM
COC(=O)N[C@@H](C(=O)N1CCC[C@H]1C(=O)Nc1ccc2c3ccc(NC(=O)[C@@H]4CCCN4C(=O)[C@H](NC(=O)OC)C(C)C)cc3n(C)c2c1)C(C)C [Example 7, dimethyl ((2R,2′R)-((2S,2′S)-(((9-methyl-9H-carbazole-2,7-diyl)bis(azanediyl))bis(carbonyl))bis(pyrrolidine-2,1-diyl))bis(3-methyl-1-oxobutane-1,2-diyl))dicarbamate]	–	–	–	> 1000 pM
